Measurements: US11919887B2, “Substituted tetrahydrofurans as modulators of sodium channels” (Vertex Pharmaceuticals Incorporated, priority 2019, dated 2024)

Target: human Nav 1.8 (Homo sapiens, UniProt Q9Y5Y9)
Assay: E-VIPR assay detecting and measuring Nav inhibition (HEK cells expressing truncated human Nav 1.8)
Type: cell-based
Conditions: in the Presence of Human Serum in the E-VIPR Assay; read-out: IC50
Source text: Sodium ion channels are voltage-dependent proteins that can be activated by inducing membrane voltage changes by applying electric fields. The electrical stimulation instrument and methods of use, referred to as E-VIPR, are described in International Publication No. WO 2002/008748 A3 and C.-J. Huang et al. Characterization of voltage-gated sodium channel blockers by electrical stimulation and fluorescence detection of membrane potential, 24 Nature Biotech. 439-46 (2006), both of which are incorporated by reference in their entirety. The instrument comprises a microtiter plate handler, an optical system for exciting the coumarin dye while simultaneously recording the coumarin and oxonol emissions, a waveform generator, a current- or voltage-controlled amplifier, and parallel electrode pairs that are inserted into assay plate wells. Under integrated computer control, this instrument passes user-programmed electrical stimulus protocols to cells within the wells of the microtiter plate.
16-20 hours prior to running the assay on E-VIPR, HEK cells expressing a truncated form of human Nav 1.8 with full channel activity were seeded into microtiter 384-well plates, pre-coated with matrigel, at a density of 25,000 cells per well. 2.5-5% KIR2.1 Bacmam virus was added to the final cell suspension before seeding into cell plates. HEK cells were grown in Dulbecco's Modified Eagle's Medium (DMEM) supplemented with 10% FBS (Fetal Bovine Serum, qualified; Sigma #F4135), 1% NEAA (Non-Essential Amino Acids, Gibco #11140), 1% HEPES (Gibco #15630), 1% Pen-Strep (Penicillin-Streptomycin; Gibco #15140) and 5 μg/ml Blasticidin (Gibco #R210-01). Cells were expanded in vented cap cell culture flasks, with 90-95% humidity and 5% CO2.
Human Serum (HS, Millipore #S1P1-01KL, or Sigma SLBR5469V and SLBR5470V as a 50%/50% mixture, for 25% assay final concentration)
Bath1 Buffer: • Sodium Chloride 160 mM (9.35 g/L), Potassium Chloride, 4.5 mM (0.335 g/L), Glucose 10 mM (1.8 g/L), Magnesium Chloride (Anhydrous) 1 mM (0.095 g/L), Calcium Chloride 2 mM (0.222 g/L), HEPES 10 mM (2.38 g/L) in water.
Na/TMA Cl Bath1 Buffer: • Sodium Chloride 96 mM (5.61 g/L), Potassium Chloride 4.5 mM (0.335 g/L), Tetramethylammonium (TMA)-Cl 64 mM (7.01 g/L), Glucose 10 mM (1.8 g/L), Magnesium Chloride (Anhydrous) 1 mM (0.095 g/L), Calcium Chloride 2 mM (0.222 g/L) HEPES 10 mM (2.38 g/L) in water.
Hexyl Dye Solution (2× concentration): • Bath1 Buffer containing 0.5% β-cyclodextrin (made fresh prior to each use, Sigma #C4767), 8 μM CC2-DMPE and 2 μM DiSBAC6(3). The solution was made by adding 10% Pluronic F127 stock equal to combined volumes of CC2-DMPE and DiSBAC6(3). The order of preparation was first mix Pluronic and CC2-DMPE, then add DiSBAC6(3), then while vortexing add Bath1/β-Cyclodextrin.
Compound Loading Buffer (2×concentration): Na/TMA Cl Bath1 Buffer containing HS (omitted in experiments run in the absence of human serum (HS)) 50%, VABSC-1 1 mM, BSA 0.2 mg/ml (in Bath-1), KCl 9 mM, DMSO 0.75%.
Assay Protocol (7 Key Steps): • 1) To reach the final concentration in each well, 400 nL of each compound was pre-spotted (in neat DMSO) into polypropylene compound plates at 250×desired final concentration from an intermediate stock concentration of 0.075 mM, in an 11 point dose response, 3-fold dilution, resulting in a top dose of 300 nM final concentration in the cell plate. Vehicle control (neat DMSO), and positive control (an established Nav1.8 inhibitor, 25 μM final in assay in DMSO) were added manually to the outermost columns of each plate respectively. The compound plate was backfilled with 45 μL per well of Compound Loading Buffer resulting in a 250 fold dilution of compound following a 1:1 transfer of compound into the cell plate (see Step 6). Final DMSO concentration for all wells in the assay was 0.625% (0.75% DMSO was supplemented to the Compound Loading Buffer for a final DMSO concentration of 0.625%). […]

Sequence of human Nav 1.8 (Q9Y5Y9 whole entry, looked up, the tested form may be a part): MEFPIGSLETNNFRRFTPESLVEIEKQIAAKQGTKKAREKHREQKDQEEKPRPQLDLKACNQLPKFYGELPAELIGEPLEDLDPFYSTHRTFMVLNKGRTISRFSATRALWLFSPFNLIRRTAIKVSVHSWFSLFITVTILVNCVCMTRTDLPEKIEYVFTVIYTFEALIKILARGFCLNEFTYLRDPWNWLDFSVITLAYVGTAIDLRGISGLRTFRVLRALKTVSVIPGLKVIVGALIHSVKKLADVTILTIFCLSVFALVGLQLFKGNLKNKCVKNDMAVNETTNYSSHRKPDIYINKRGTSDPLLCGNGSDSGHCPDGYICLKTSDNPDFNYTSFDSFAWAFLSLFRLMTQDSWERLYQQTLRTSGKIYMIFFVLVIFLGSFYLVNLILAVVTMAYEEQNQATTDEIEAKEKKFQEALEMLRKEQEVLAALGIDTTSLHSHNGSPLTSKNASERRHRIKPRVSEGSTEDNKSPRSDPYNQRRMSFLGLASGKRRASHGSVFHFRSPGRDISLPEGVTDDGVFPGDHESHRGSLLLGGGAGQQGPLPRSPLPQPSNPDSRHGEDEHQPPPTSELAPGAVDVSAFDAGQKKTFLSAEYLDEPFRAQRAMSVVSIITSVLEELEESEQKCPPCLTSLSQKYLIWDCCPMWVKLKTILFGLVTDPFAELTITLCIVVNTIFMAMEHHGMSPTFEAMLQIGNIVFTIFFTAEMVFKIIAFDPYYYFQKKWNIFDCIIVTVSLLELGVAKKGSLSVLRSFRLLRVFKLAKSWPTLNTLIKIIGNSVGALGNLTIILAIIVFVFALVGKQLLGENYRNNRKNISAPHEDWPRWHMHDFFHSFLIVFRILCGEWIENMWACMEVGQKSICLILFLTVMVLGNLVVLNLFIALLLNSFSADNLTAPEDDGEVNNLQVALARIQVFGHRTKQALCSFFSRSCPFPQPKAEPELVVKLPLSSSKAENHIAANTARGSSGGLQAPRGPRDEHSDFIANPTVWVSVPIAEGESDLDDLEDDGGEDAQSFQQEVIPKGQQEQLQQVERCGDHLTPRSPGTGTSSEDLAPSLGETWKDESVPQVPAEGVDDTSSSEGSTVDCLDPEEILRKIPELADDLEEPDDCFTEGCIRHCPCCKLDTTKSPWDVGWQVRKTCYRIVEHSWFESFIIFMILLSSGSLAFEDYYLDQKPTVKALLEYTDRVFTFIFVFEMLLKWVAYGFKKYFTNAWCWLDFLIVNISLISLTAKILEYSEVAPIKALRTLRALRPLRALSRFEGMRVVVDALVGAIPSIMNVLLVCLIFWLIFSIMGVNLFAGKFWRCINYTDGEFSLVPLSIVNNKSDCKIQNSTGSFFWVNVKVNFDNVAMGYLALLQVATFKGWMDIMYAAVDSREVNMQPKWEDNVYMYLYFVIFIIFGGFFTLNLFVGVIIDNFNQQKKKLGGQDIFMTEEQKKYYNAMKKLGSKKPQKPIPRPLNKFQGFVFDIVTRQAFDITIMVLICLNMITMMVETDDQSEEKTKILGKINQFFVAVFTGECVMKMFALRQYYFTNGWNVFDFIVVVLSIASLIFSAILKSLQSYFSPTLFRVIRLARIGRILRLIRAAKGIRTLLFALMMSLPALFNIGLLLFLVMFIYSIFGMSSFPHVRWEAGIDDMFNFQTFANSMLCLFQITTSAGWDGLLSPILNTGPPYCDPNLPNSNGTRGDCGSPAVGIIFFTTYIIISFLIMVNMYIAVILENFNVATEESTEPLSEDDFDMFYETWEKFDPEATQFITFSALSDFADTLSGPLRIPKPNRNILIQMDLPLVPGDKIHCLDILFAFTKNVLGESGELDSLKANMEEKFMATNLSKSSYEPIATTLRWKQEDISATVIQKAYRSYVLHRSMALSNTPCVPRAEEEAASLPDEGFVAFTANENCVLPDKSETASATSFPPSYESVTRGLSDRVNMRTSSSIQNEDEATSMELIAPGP

SMILES | IC50
COc1cc(F)ccc1[C@@H]1[C@@H](C)[C@@](C)(C(F)(F)F)O[C@H]1C(=O)Nc1ccnc(C(N)=O)c1 (single isomer, unassigned) [Compound 36] | > 1000 nM
COc1cc(F)ccc1[C@@H]1[C@@H](C(=O)Nc2ccnc(C(N)=O)c2)O[C@@](C)(C(F)(F)F)[C@H]1C (single isomer, unassigned) [Compound 37] | 100 to 1000 nM
COc1cc(F)ccc1[C@@H]1[C@@H](C(=O)Nc2ccnc(C(N)=O)c2)O[C@](C)(C(F)(F)F)[C@H]1C (single isomer, unassigned) [Compound 38] | > 1000 nM
COc1cc(F)ccc1[C@@H]1[C@@H](C)[C@](C)(C(F)(F)F)O[C@H]1C(=O)Nc1ccnc(C(N)=O)c1 (single isomer, unassigned) [Compound 39] | 100 to 1000 nM
COc1cc(F)ccc1[C@H]1[C@H](C(=O)Nc2ccnc(C(N)=O)c2)O[C@](C)(C(F)(F)F)[C@H]1C (single isomer, unassigned) [Compound 40] | > 1000 nM
COc1cc(F)ccc1[C@@H]1[C@@H](C(=O)Nc2ccnc(C(N)=O)c2)O[C@@](C)(C(F)(F)F)[C@@H]1C (single isomer, unassigned) [Compound 41] | 10 to 100 nM
COc1c([C@H]2[C@H](C(=O)Nc3ccnc(C(N)=O)c3)O[C@@](C)(C(F)(F)F)[C@H]2C)ccc(F)c1C(F)F (single isomer, unassigned) [Compound 44] | < 10 nM
COc1c([C@@H]2[C@@H](C(=O)Nc3ccnc(C(N)=O)c3)O[C@](C)(C(F)(F)F)[C@@H]2C)ccc(F)c1C(F)F (single isomer, unassigned) [Compound 45] | 10 to 100 nM
COc1c([C@H]2C[C@@](C)(C(F)(F)F)O[C@@H]2C(=O)Nc2ccc(F)c(C(N)=O)c2)ccc(F)c1F (single isomer, unassigned) [Compound 46] | > 1000 nM
COc1c([C@@H]2C[C@](C)(C(F)(F)F)O[C@H]2C(=O)Nc2ccc(F)c(C(N)=O)c2)ccc(F)c1F (single isomer, unassigned) [Compound 47] | 10 to 100 nM
CNC(=O)c1cc(NC(=O)[C@H]2O[C@](C)(C(F)(F)F)C[C@@H]2c2ccc(F)c(Cl)c2OC)ccn1 (single isomer, unassigned) [Compound 58] | > 1000 nM
CNC(=O)c1cc(NC(=O)[C@@H]2O[C@](C)(C(F)(F)F)C[C@H]2c2ccc(F)c(Cl)c2OC)ccn1 (single isomer, unassigned) [Compound 59] | > 1000 nM
CNC(=O)c1cc(NC(=O)[C@@H]2O[C@@](C)(C(F)(F)F)C[C@H]2c2ccc(F)c(Cl)c2OC)ccn1 (single isomer, unassigned) [Compound 60] | 10 to 100 nM
CNC(=O)c1cc(NC(=O)[C@H]2O[C@@](C)(C(F)(F)F)C[C@@H]2c2ccc(F)c(Cl)c2OC)ccn1 (single isomer, unassigned) [Compound 61] | 100 to 1000 nM
COc1c([C@H]2C[C@@H](C(C)(C)C)O[C@@H]2C(=O)Nc2ccnc(C(N)=O)c2)ccc(F)c1F (single isomer, unassigned) [Compound 65] | > 1000 nM
COc1c([C@@H]2C[C@H](C(C)(C)C)O[C@H]2C(=O)Nc2ccnc(C(N)=O)c2)ccc(F)c1F (single isomer, unassigned) [Compound 66] | 100 to 1000 nM
COc1cc(F)ccc1[C@H]1C[C@@](C)(C(F)(F)F)O[C@H]1C(=O)Nc1ccnc(C(N)=O)c1 (single isomer, unassigned) [Compound 69] | > 1000 nM
COc1c([C@H]2C[C@@](C)(C(F)(F)F)O[C@@H]2C(=O)Nc2ccnc(C(N)=O)c2)ccc(F)c1C (single isomer, unassigned) [Compound 71] | > 1000 nM
COc1c([C@@H]2C[C@](C)(C(F)(F)F)O[C@H]2C(=O)Nc2ccnc(C(N)=O)c2)ccc(F)c1C (single isomer, unassigned) [Compound 72] | 10 to 100 nM

SMILES | IC50
Cc1c(F)ccc([C@H]2C[C@@](C)(C(F)(F)F)O[C@@H]2C(=O)Nc2ccnc(C(N)=O)c2)c1F (single isomer, unassigned) [Compound 75] | > 1000 nM
Cc1c(F)ccc([C@@H]2C[C@](C)(C(F)(F)F)O[C@H]2C(=O)Nc2ccnc(C(N)=O)c2)c1F (single isomer, unassigned) [Compound 76] | 100 to 1000 nM
CCc1c(F)ccc([C@H]2C[C@@](C)(C(F)(F)F)O[C@@H]2C(=O)Nc2ccnc(C(N)=O)c2)c1OC (single isomer, unassigned) [Compound 77] | > 1000 nM
CCc1c(F)ccc([C@@H]2C[C@](C)(C(F)(F)F)O[C@H]2C(=O)Nc2ccnc(C(N)=O)c2)c1OC (single isomer, unassigned) [Compound 78] | 10 to 100 nM
COc1c([C@@H]2C[C@@](C)(CC(F)(F)F)O[C@H]2C(=O)Nc2ccnc(C(N)=O)c2)ccc(F)c1F (single isomer, unassigned) [Compound 80] | > 1000 nM
COc1c([C@@H]2C[C@](C)(CC(F)(F)F)O[C@H]2C(=O)Nc2ccnc(C(N)=O)c2)ccc(F)c1F (single isomer, unassigned) [Compound 81] | 100 to 1000 nM
COc1c([C@H]2C[C@@](C)(CC(F)(F)F)O[C@@H]2C(=O)Nc2ccnc(C(N)=O)c2)ccc(F)c1F (single isomer, unassigned) [Compound 82] | > 1000 nM
COc1c([C@H]2C[C@](C)(CC(F)(F)F)O[C@@H]2C(=O)Nc2ccnc(C(N)=O)c2)ccc(F)c1F (single isomer, unassigned) [Compound 83] | 100 to 1000 nM
COc1c([C@@H]2C[C@@](C)(C(C)(F)F)O[C@H]2C(=O)Nc2ccnc(C(N)=O)c2)ccc(F)c1F (single isomer, unassigned) [Compound 84] | > 1000 nM
COc1c([C@H]2C[C@@](C)(C(C)(F)F)O[C@@H]2C(=O)Nc2ccnc(C(N)=O)c2)ccc(F)c1F (single isomer, unassigned) [Compound 85] | > 1000 nM
COc1c([C@@H]2C[C@](C)(C(C)(F)F)O[C@H]2C(=O)Nc2ccnc(C(N)=O)c2)ccc(F)c1F (single isomer, unassigned) [Compound 86] | > 1000 nM
COc1c([C@H]2C[C@](C)(C(C)(F)F)O[C@@H]2C(=O)Nc2ccnc(C(N)=O)c2)ccc(F)c1F (single isomer, unassigned) [Compound 87] | 100 to 1000 nM
CC(C)Oc1c([C@@H]2[C@@H](C(=O)Nc3ccnc(C(N)=O)c3)O[C@](C)(C(F)(F)F)[C@@H]2C)ccc(F)c1F (single isomer, unassigned) [Compound 88] | > 1000 nM
CC(C)Oc1c([C@H]2[C@H](C(=O)Nc3ccnc(C(N)=O)c3)O[C@@](C)(C(F)(F)F)[C@H]2C)ccc(F)c1F (single isomer, unassigned) [Compound 89] | < 10 nM
C[C@@H]1[C@H](c2ccc(F)c(F)c2)[C@@H](C(=O)Nc2ccnc(C(N)=O)c2)O[C@]1(C)C(F)(F)F (single isomer, unassigned) [Compound 90] | > 1000 nM
C[C@H]1[C@@H](c2ccc(F)c(F)c2)[C@H](C(=O)Nc2ccnc(C(N)=O)c2)O[C@@]1(C)C(F)(F)F (single isomer, unassigned) [Compound 91] | 100 to 1000 nM
CC[C@@H]1[C@H](c2ccc(F)c(F)c2OC)[C@@H](C(=O)Nc2ccnc(C(N)=O)c2)O[C@]1(C)C(F)(F)F (single isomer, unassigned) [Compound 92] | > 1000 nM
CC[C@H]1[C@@H](c2ccc(F)c(F)c2OC)[C@H](C(=O)Nc2ccnc(C(N)=O)c2)O[C@@]1(C)C(F)(F)F (single isomer, unassigned) [Compound 93] | < 10 nM
